ChEMBL document CHEMBL3351679, “Radioiodinated benzyloxybenzene derivatives: a class of flexible ligands target to β-amyloid plaques in Alzheimer's brains” (J Med Chem, 2014)
Each block holds one compound with its values, some of them ahead of it.

Key:
[1] = In vivo biostability in ICR mouse feces assessed as radioactivity at 250 uCi, iv measured at 60 mins post dose; format: ADME, organism-based; settings: 1 h
Liver [2] = test: In vivo biostability in ICR mouse liver assessed as radioactivity at 250 uCi, iv measured at 2 mins post dose; format: ADME, organism-based
Blood [3] = test: In vivo biostability in ICR mouse blood assessed as radioactivity at 250 uCi, iv measured at 30 mins post dose; format: ADME, organism-based; settings: 0.5 h
[4] = target: T1, Amyloid-beta precursor protein (Homo sapiens, UniProt P05067); test: Binding affinity to amyloid beta42 (unknown origin) after 3 hrs by gamma counting
T1 sequence (P05067 whole entry): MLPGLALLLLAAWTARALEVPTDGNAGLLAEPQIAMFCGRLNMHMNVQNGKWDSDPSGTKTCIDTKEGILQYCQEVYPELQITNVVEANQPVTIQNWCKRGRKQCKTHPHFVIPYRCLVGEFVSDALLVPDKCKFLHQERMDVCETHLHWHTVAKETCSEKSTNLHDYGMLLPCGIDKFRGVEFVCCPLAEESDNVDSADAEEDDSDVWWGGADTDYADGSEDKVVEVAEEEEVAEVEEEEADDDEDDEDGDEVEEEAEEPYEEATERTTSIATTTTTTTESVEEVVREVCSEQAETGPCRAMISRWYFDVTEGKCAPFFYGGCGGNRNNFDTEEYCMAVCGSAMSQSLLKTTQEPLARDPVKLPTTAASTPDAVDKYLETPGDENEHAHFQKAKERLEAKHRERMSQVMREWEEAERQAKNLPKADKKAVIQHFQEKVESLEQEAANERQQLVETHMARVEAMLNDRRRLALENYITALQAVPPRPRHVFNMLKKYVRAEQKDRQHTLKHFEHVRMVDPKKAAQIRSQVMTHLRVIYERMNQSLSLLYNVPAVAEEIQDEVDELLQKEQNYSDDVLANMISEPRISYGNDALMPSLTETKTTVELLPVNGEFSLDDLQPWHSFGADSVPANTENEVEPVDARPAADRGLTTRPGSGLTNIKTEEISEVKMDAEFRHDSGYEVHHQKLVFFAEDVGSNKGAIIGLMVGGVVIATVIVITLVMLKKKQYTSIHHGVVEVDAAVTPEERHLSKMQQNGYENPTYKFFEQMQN

Brain [5] = test: In vivo biostability in ICR mouse brain assessed as radioactivity at 250 uCi, iv measured at 10 mins post dose; format: ADME, organism-based
Liver [6] = test: Biostability in mouse liver homogenate assessed as radioactivity at 30 uCi at 37 degC measured at 60 mins by HPLC; format: ADME, tissue-based; settings: tissue homogenate, 1 h
Brain [7] = test: Biodistribution in ICR mouse brain at 250 uCi, iv measured at 60 mins post dose; format: ADME, organism-based; settings: in vivo, 1 h
Plasma = test: Biostability in mouse plasma assessed as radioactivity at 30 uCi at 37 degC measured at 60 mins by HPLC; format: ADME, cell-free; settings: 1 h
Liver [8] = test: In vivo biostability in ICR mouse liver assessed as radioactivity at 250 uCi, iv measured at 30 mins post dose; format: ADME, organism-based; settings: 0.5 h
Blood [9] = test: In vivo biostability in ICR mouse blood assessed as radioactivity at 250 uCi, iv measured at 60 mins post dose; format: ADME, organism-based; settings: 1 h
Liver [10] = test: In vivo biostability in ICR mouse liver assessed as radioactivity at 250 uCi, iv measured at 60 mins post dose; format: ADME, organism-based; settings: 1 h
Liver [11] = test: In vivo biostability in ICR mouse liver assessed as radioactivity at 250 uCi, iv measured at 10 mins post dose; format: ADME, organism-based
[12] = In vivo biostability in ICR mouse feces assessed as radioactivity at 250 uCi, iv measured at 30 mins post dose; format: ADME, organism-based; settings: 0.5 h
Brain [13] = test: Ratio of drug uptake in ICR mouse brain at 250 uCi, iv measured at 2 mins post dose to drug uptake in ICR mouse brain at 250 uCi, iv measured at 60 mins post dose; format: ADME, organism-based; settings: in vivo
Blood [14] = test: In vivo biostability in ICR mouse blood assessed as radioactivity at 250 uCi, iv measured at 10 mins post dose; format: ADME, organism-based
Brain [15] = test: In vivo biostability in ICR mouse brain assessed as radioactivity at 250 uCi, iv measured at 30 mins post dose; format: ADME, organism-based; settings: 0.5 h
[16] = In vivo biostability in ICR mouse urine assessed as radioactivity at 250 uCi, iv measured at 30 mins post dose; format: ADME, organism-based; settings: 0.5 h
[17] = Partition coefficient, log D of the compound; format: physicochemical; settings: octanol/water
[18] = In vivo biostability in ICR mouse urine assessed as radioactivity at 250 uCi, iv measured at 10 mins post dose; format: ADME, organism-based
Brain [19] = test: Biodistribution in ICR mouse brain at 250 uCi, iv measured at 2 mins post dose; format: ADME, organism-based; settings: in vivo
Blood [20] = test: In vivo biostability in ICR mouse blood assessed as radioactivity at 250 uCi, iv measured at 2 mins post dose; format: ADME, organism-based
Brain [21] = test: In vivo biostability in ICR mouse brain assessed as radioactivity at 250 uCi, iv measured at 2 mins post dose; format: ADME, organism-based
Brain [22] = test: In vivo biostability in ICR mouse brain assessed as radioactivity at 250 uCi, iv measured at 60 mins post dose; format: ADME, organism-based; settings: 1 h
[23] = In vivo biostability in ICR mouse urine assessed as radioactivity at 250 uCi, iv measured at 60 mins post dose; format: ADME, organism-based; settings: 1 h
[24] = target: T1, Amyloid-beta precursor protein; test: Displacement of [125I]1-Iodo-4-((4-methoxyphenoxy)methyl)benzene from amyloid beta42 (unknown origin) after 3 hrs by gamma counting

SMILES: Fc1ccc(OCc2ccc(I)cc2)cc1
Ki ([24]; read-out: Ki): 107 nM
Ki ([24]; read-out: pKi (converted)): 107 nM

SMILES: CN(C)c1ccc(OCc2ccc([125I])cc2)cc1
Drug uptake (Brain [7]): < 0.5 % ID/g
logD [17]: 2.89
Drug uptake (Brain [19]): > 4 % ID/g

SMILES: COc1ccccc1OCc1ccc(I)cc1
Ki ([24]; read-out: Ki): 5160 nM
Ki ([24]; read-out: pKi (converted)): 5130 nM

SMILES: COc1ccc(OCc2ccc(I)cc2)cc1
Ki ([24]; read-out: Ki): 24.3 nM
Ki ([24]; read-out: pKi (converted)): 24.5 nM

SMILES: CC(C)(C)c1ccc(OCc2ccc(I)cc2)cc1
Ki ([24]; read-out: Ki): 118 nM
Ki ([24]; read-out: pKi (converted)): 117 nM

SMILES: COc1cccc(OCc2ccc(I)cc2)c1
Ki ([24]; read-out: Ki): 131 nM
Ki ([24]; read-out: pKi (converted)): 132 nM

SMILES: Ic1ccc(COc2ccccc2)cc1
Ki ([24]; read-out: Ki): 79.4 nM
Ki ([24]; read-out: pKi (converted)): 79.4 nM

SMILES: Clc1ccc(OCc2ccc(I)cc2)cc1
Ki ([24]; read-out: Ki): 18.8 nM
Ki ([24]; read-out: pKi (converted)): 18.6 nM

SMILES: CNc1ccccc1OCc1ccc(I)cc1
Ki ([24]; read-out: Ki): 20700 nM
Ki ([24]; read-out: pKi (converted)): 20900 nM

SMILES: Oc1ccc(OCc2ccc(I)cc2)cc1
Ki ([24]; read-out: Ki): 113 nM
Ki ([24]; read-out: pKi (converted)): 112 nM

SMILES: Nc1cccc(OCc2ccc(I)cc2)c1
Ki ([24]; read-out: Ki): 1530 nM
Ki ([24]; read-out: pKi (converted)): 1550 nM

SMILES: Nc1ccccc1OCc1ccc(I)cc1
Ki ([24]; read-out: Ki): 1030 nM
Ki ([24]; read-out: pKi (converted)): 1020 nM

SMILES: CN(C)c1cccc(OCc2ccc(I)cc2)c1
Ki ([24]; read-out: Ki): 894 nM
Ki ([24]; read-out: pKi (converted)): 891 nM

SMILES: COc1ccc(SCc2ccc(I)cc2)cc1
Ki ([24]; read-out: Ki): 530 nM
Ki ([24]; read-out: pKi (converted)): 525 nM

Continued, values first:

Stability [1]: 40.6%
Stability (Liver [2]): 42.4%
Stability (Blood [3]): 18.2%
Kd [4]: 0.56 nM
Stability (Brain [5]): 82%
Stability (Liver [6]): 100%
Drug uptake (Brain [7]): < 0.5 % ID/g
Stability (Plasma): 100%
Stability (Liver [8]): 2.5%
Stability (Blood [9]): 10.6%
Stability (Liver [10]): 1.9%
Stability (Liver [11]): 31.9%
Stability [12]: 49.9%
Ratio (Brain [13]): 16.3
Stability (Blood [14]): 49.7%
Stability (Brain [15]): 46.6%
Stability [16]: 2.4%
logD [17]: 4
Stability [18]: 8.4%
Drug uptake (Brain [19]): 6.18 % ID/g
Stability (Blood [20]): 71.5%
Stability (Brain [21]): 95%
Stability (Brain [22]): 38.9%
Stability [23]: 1.3%
SMILES: COc1ccc(OCc2ccc([125I])cc2)cc1

Ki ([24]; read-out: Ki): 49.4 nM
Ki ([24]; read-out: pKi (converted)): 49 nM
SMILES: COc1ccc(COc2ccc(I)cc2)cc1

Ki ([24]; read-out: Ki): 12 nM
Ki ([24]; read-out: pKi (converted)): 12 nM
SMILES: Brc1ccc(OCc2ccc(I)cc2)cc1

Ki ([24]; read-out: Ki): 17.6 nM
Ki ([24]; read-out: pKi (converted)): 17.8 nM
SMILES: CN(C)c1ccc(OCc2ccc(I)cc2)cc1

Drug uptake (Brain [7]): < 0.5 % ID/g
logD [17]: 4.16
Drug uptake (Brain [19]): > 4 % ID/g
SMILES: COc1ccc(COc2ccc([125I])cc2)cc1

Ki ([24]; read-out: Ki): 409 nM
Ki ([24]; read-out: pKi (converted)): 407 nM
SMILES: Nc1ccc(OCc2ccc(I)cc2)cc1

Ki ([24]; read-out: Ki): 21.9 nM
Ki ([24]; read-out: pKi (converted)): 21.9 nM
SMILES: Ic1ccc(COc2ccc(I)cc2)cc1

Ki ([24]; read-out: Ki): 48.2 nM
Ki ([24]; read-out: pKi (converted)): 47.9 nM
SMILES: CNc1ccc(OCc2ccc(I)cc2)cc1

Ki ([24]; read-out: Ki): 386 nM
Ki ([24]; read-out: pKi (converted)): 389 nM
SMILES: Oc1cccc(OCc2ccc(I)cc2)c1

Ki ([24]; read-out: Ki): 594 nM
Ki ([24]; read-out: pKi (converted)): 589 nM
SMILES: CNc1cccc(OCc2ccc(I)cc2)c1

Ki ([24]; read-out: Ki): 2830 nM
Ki ([24]; read-out: pKi (converted)): 2820 nM
SMILES: Oc1ccccc1OCc1ccc(I)cc1
